Measured values as given in the Deep4Chem optical property database.
“And” between values parts separate entries of the source, which are not always exact repeats. Equal values may be shown once.

Experiment: photoluminescence quantum yield (fraction); solvent given as SMILES
[1] = in c1cc(-c2cccc(-n3c4ccccc4c4ccccc43)c2)cc(-n2c3ccccc3c3ccccc32)c1

SMILES: CCn1c2cc(C(C)(C)C)ccc2c2c3nsnc3c3c4ccc(C(C)(C)C)cc4n(CC)c3c21
- photoluminescence quantum yield (in CN(C)C=O): 0.07
- photoluminescence quantum yield (in Cc1ccccc1): 0.08
- photoluminescence quantum yield (in ClCCl): 0.07

SMILES: COc1ccc(C2C3=C(CCCC3=O)Nc3c2c(=O)oc2ccccc32)cc1 (centres undefined)
- photoluminescence quantum yield (in CS(C)=O): 0.26

SMILES: F[B-]1(F)n2c(-c3cccs3)cc(-c3cccs3)c2N=C2C(c3cccs3)=CC(c3cccs3)=[N+]21
- photoluminescence quantum yield (in C1CCOC1): 0.12
- photoluminescence quantum yield (in CC#N): 0.11
- photoluminescence quantum yield (in CS(C)=O): 0.13
- photoluminescence quantum yield (in Cc1ccccc1): 0.1
- photoluminescence quantum yield (in ClCCl): 0.12 and 0.11

SMILES: Cc1c(C(=O)c2ccccc2)c2ccc3cccc4c5cccc6ccc1c(c65)c2c34
- photoluminescence quantum yield (in ClCCl): 0.02

SMILES: CN(C)c1ccc(C#Cc2cc(C#Cc3ccc(C(F)(F)F)cc3)c3ccc4c(C#Cc5ccc(C(F)(F)F)cc5)cc(C#Cc5ccc(C(F)(F)F)cc5)c5ccc2c3c54)cc1
- photoluminescence quantum yield (in ClCCl): 0.43

SMILES: COc1c2ccccc2c(OC)c2c1c1c(F)cccc1n2C
- photoluminescence quantum yield (in C1CCCCC1): 0.38
- photoluminescence quantum yield (in CC#N): 0.26
- photoluminescence quantum yield (in CO): 0.33
- photoluminescence quantum yield (in ClCCl): 0.41

SMILES: CN(C)c1ccc(C2=Cc3ccc4ccccc4[n+]3[B-](F)(F)O2)cc1
- photoluminescence quantum yield (in C1CCOC1): 0.517
- photoluminescence quantum yield (in C1COCCO1): 0.735
- photoluminescence quantum yield (in CC1CCCCC1): 0.862
- photoluminescence quantum yield (in CC#N): 0.296
- photoluminescence quantum yield (in CCOC(C)=O): 0.614
- photoluminescence quantum yield (in CCOCC): 0.747
- photoluminescence quantum yield (in CN(C)C=O): 0.187
- photoluminescence quantum yield (in CO): 0.308
- photoluminescence quantum yield (in COC(C)=O): 0.374
- photoluminescence quantum yield (in ClC(Cl)Cl): 0.86

SMILES: O=[N+]([O-])c1ccc(NCCNCc2c3ccccc3cc3ccccc23)c([N+](=O)[O-])c1
- photoluminescence quantum yield (in C1CCCCC1): 0.0003
- photoluminescence quantum yield (in C1CCOC1): 0.00044
- photoluminescence quantum yield (in CC#N): 0.00168
- photoluminescence quantum yield (in CC(C)=O): 0.0024
- photoluminescence quantum yield (in CCO): 0.0363
- photoluminescence quantum yield (in CN(C)C=O): 0.00369
- photoluminescence quantum yield (in CO): 0.0334
- photoluminescence quantum yield (in ClC(Cl)Cl): 0.0061

SMILES: c1ccc(-c2c3ccccc3c(-c3ncccn3)c3ccccc23)cc1
- photoluminescence quantum yield (in CCO): 0.08
- photoluminescence quantum yield (in ClCCl): 0.16

SMILES: Cc1cc(-c2ccc(C(C)(C)C)cc2)cc(C)[o+]1
- photoluminescence quantum yield (in CC#N): 0.36
- photoluminescence quantum yield (in ClCCl): 0.25

SMILES: CC(C)(C)c1ccc(-c2sc3c(-c4ccc(C(C)(C)C)cc4)c4n(c3c2-c2ccc(C(C)(C)C)cc2)[B-](F)(F)[N+]2=Cc3c(-c5ccc(C(C)(C)C)cc5)c5sc(-c6ccc(C(C)(C)C)cc6)c(-c6ccc(C(C)(C)C)cc6)c5n3[B-](F)(F)[N+]2=C4)cc1
- photoluminescence quantum yield (in CC#N): 0.49
- photoluminescence quantum yield (in CCCCCC): 0.64
- photoluminescence quantum yield (in CN(C)C=O): 0.45
- photoluminescence quantum yield (in Cc1ccccc1): 0.59
- photoluminescence quantum yield (in ClCCl): 0.6

SMILES: Cc1ccc2c(c1)C(=O)c1ccncc1-2
- photoluminescence quantum yield (in CC#N): 0.019
- photoluminescence quantum yield (in CCCCCC): 0.0032
- photoluminescence quantum yield (in CCOC(C)=O): 0.036
- photoluminescence quantum yield (in Cc1ccccc1): 0.031
- photoluminescence quantum yield (in ClCCl): 0.022

SMILES: C(=C\c1cc2ccccc2c2ccccc12)/c1cc2ccccc2c2ccccc12
- photoluminescence quantum yield (in C1CCOC1): 0.6

SMILES: CC1(C)c2ccccc2N(c2ccc(-c3ccc(C#N)cc3)cc2)c2ccccc21
- photoluminescence quantum yield (in Cc1ccccc1): 0.178
- photoluminescence quantum yield (in N#Cc1ccc2c(c1)c1ccccc1n2-c1cccc(-n2c3ccccc3c3ccccc32)c1): 0.36

SMILES: [BH3-][P+]1(c2ccccc2)c2ccccc2-c2sc3ccccc3c21 (centres undefined)
- photoluminescence quantum yield (in ClCCl): 0.38

SMILES: C[Si](C)(C)C#Cc1c2c(=O)c3ccccc3c2c(C#C[Si](C)(C)C)c2c(=O)c3ccccc3c12
- photoluminescence quantum yield (in ClC(Cl)Cl): 0.08

SMILES: CCCCCOc1cc2oc(=O)c3c4ccc(N(c5ccccc5)c5ccccc5)cc4c4ccc5cccc6c(c1)c2c3c4c56
- photoluminescence quantum yield (in C1CCOC1): 0.752

SMILES: CC(C)(C)NC(=O)c1ccc(-c2cc3ccccc3s2)c2ccc3c4ccccc4c4ccccc4c3c12
- photoluminescence quantum yield (in ClCCl): 0.27

SMILES: F[B-]1(F)OC(c2cc3c4c(c2)CCCN4CCC3)=Cc2cccc[n+]21
- photoluminescence quantum yield (in ClC(Cl)Cl): 0.57

SMILES: S=P1(c2ccccc2)C(c2ccccc2)=Cc2cc3ccccc3cc21 (centres undefined)
- photoluminescence quantum yield (in ClCCl): 0.001

SMILES: CN(C)c1ccc(-c2cc(=O)c3ccccc3o2)cc1
- photoluminescence quantum yield (in C1CCCCC1): 0.007
- photoluminescence quantum yield (in C1CCOC1): 1
- photoluminescence quantum yield (in CC#N): 1 and 0.96
- photoluminescence quantum yield (in CCOC(C)=O): 1
- photoluminescence quantum yield (in CCOCC): 0.87
- photoluminescence quantum yield (in CO): 0.095
- photoluminescence quantum yield (in Cc1ccccc1): 0.76

SMILES: CCCCCCCCCCOc1ccc2cc(C3=C4C(=O)N(CC(OCC)OCC)C(c5cc6ccc(OCCCCCCCCCC)cc6o5)=C4C(=O)N3CC(OCC)OCC)oc2c1
- photoluminescence quantum yield (in ClC(Cl)Cl): 0.75

SMILES: CC(C)(C)c1ccc2c(c1)oc1nc3oc4ccc(-n5c6ccccc6c6ccccc65)cc4c3cc12
- photoluminescence quantum yield (in ClC(Cl)Cl): 0.075

SMILES: CCN(CC)c1ccc(C2=C3C(C)=CC(C)=[N+]3[B-](F)(F)n3c(C)cc(C)c32)cc1
- photoluminescence quantum yield (in CO): 0.56

SMILES: Cc1cc(-c2nnc(-c3c(C(C)C)cc(C(C)C)cc3C(C)C)o2)ccc1-n1c2ccccc2c2ccccc21
- photoluminescence quantum yield (in Cc1ccccc1): 0.38

SMILES: Nc1ccc2c(c1)C(=O)c1ccc(N)cc1C2=O
- photoluminescence quantum yield (in CC#N): 0.016
- photoluminescence quantum yield (in CC(C)O): 0.008
- photoluminescence quantum yield (in CCO): 0.0007
- photoluminescence quantum yield (in CCOC(C)=O): 0.028
- photoluminescence quantum yield (in CO): 0.0002

SMILES: N#C/C(=C\c1ccc(C#N)cc1)c1nc(-c2ccccc2)cs1
- photoluminescence quantum yield (in CC#N): 0.18
- photoluminescence quantum yield (in CCO): 0.18
- photoluminescence quantum yield (in CN(C)C=O): 0.272
- photoluminescence quantum yield (in Cc1ccccc1): 0.098
- photoluminescence quantum yield (in ClCCl): 0.131

SMILES: c1ccc(-c2nc(-c3ccccc3)nc(-c3ccc(-c4ccc5c(c4)[Si](c4ccccc4)(c4ccccc4)c4cc(-c6ccc(-c7nc(-c8ccccc8)nc(-c8ccccc8)n7)cc6)ccc4N5c4ccccc4)cc3)n2)cc1
- photoluminescence quantum yield [1]: 0.96

SMILES: C(/C=C/Nc1ccccc1)=[NH+]c1ccccc1
- photoluminescence quantum yield (in CS(C)=O): 0.08

SMILES: CN(C)c1ccc(C#Cc2ccc3ccc(=O)oc3c2)cc1
- photoluminescence quantum yield (in CC#N): 0.009

SMILES: CC1=[N+]2C(=C(C3=CC4OCCOCCOCCOCCOC4C=C3)c3c4ccccc4c(/C=C/c4ccc(N(C)C)cc4)n3[B-]2(F)F)c2ccccc21 (centres undefined)
- photoluminescence quantum yield (in CC#N): 0.24

SMILES: CCCC1=Cc2nc1ccc1[nH]c(cc1CCOC)c1nc(ccc3[nH]c2cc3CCC)C(CCOC)=C1
- photoluminescence quantum yield (in Cc1ccccc1): 0.54

SMILES: c1ccc([B-]2(c3ccccc3)Oc3ccc4ccccc4c3-c3c4ccccc4cc[n+]32)cc1
- photoluminescence quantum yield (in Cc1ccccc1): 0.32

SMILES: CCN1C(=CC=Cc2n(CC)c3cc(Cl)c(Cl)cc3[n+]2CC)N(CC)c2cc(Cl)c(Cl)cc21
- photoluminescence quantum yield (in CC#N): 0.024
- photoluminescence quantum yield (in CCCCCCO): 0.058
- photoluminescence quantum yield (in CCCCO): 0.042
- photoluminescence quantum yield (in CCCO): 0.033
- photoluminescence quantum yield (in CCO): 0.023
- photoluminescence quantum yield (in CO): 0.016
- photoluminescence quantum yield (in CS(C)=O): 0.055
- photoluminescence quantum yield (in OCC(O)CO): 0.36
- photoluminescence quantum yield (in OCCO): 0.075

SMILES: c1ccc(/C(=C(\c2ccccc2)c2cc(-c3ccccc3)ccc2-c2ccc(-c3ccccc3)cc2)c2cc(-c3ccccc3)ccc2-c2ccc(-c3ccccc3)cc2)cc1
- photoluminescence quantum yield (in C1CCOC1): 0.38

SMILES: COc1cccc2cc(-c3ccc([N+](=O)[O-])cc3)c(=O)oc12
- photoluminescence quantum yield (in C1CCOC1): 0.005
- photoluminescence quantum yield (in CC#N): 0.0019
- photoluminescence quantum yield (in CS(C)=O): 0.0015
- photoluminescence quantum yield (in ClC(Cl)Cl): 0.014

SMILES: O=S1(=O)c2ccccc2Oc2cc(N3c4ccccc4C4(c5ccccc53)c3ccccc3N(c3ccc5c(c3)Oc3ccccc3S5(=O)=O)c3ccccc34)ccc21
- photoluminescence quantum yield (in O=P(c1ccccc1)(c1ccccc1)c1ccccc1Oc1ccccc1P(=O)(c1ccccc1)c1ccccc1): 0.63

SMILES: CC/[NH+]=c1\cc2oc3cc(NCCC(=O)O)c4ccccc4c3nc-2cc1C
- photoluminescence quantum yield (in CCO): 0.44
- photoluminescence quantum yield (in O): 0.28

SMILES: N#CC1=c2cc3c4c(c2Oc2c1cc1c5c2CCCN5CCC1)CCC[N+]=4CCC3
- photoluminescence quantum yield (in CCO): 0.25

SMILES: N#CC(C#N)=Cc1ccc(-c2ccc(N(c3ccccc3)c3ccccc3)cc2)cc1
- photoluminescence quantum yield (in ClC(Cl)Cl): 0.19

SMILES: CCOC(=O)c1c2c3c(ccc(Br)c3c3cc4ccccc4cc13)N(C)C2=O
- photoluminescence quantum yield (in CC#N): 0.45

SMILES: O=C(c1ccncc1)c1ccc(-n2c3ccc(-n4c5ccccc5c5ccccc54)cc3c3cc(-n4c5ccccc5c5ccccc54)ccc32)cc1
- photoluminescence quantum yield (in Cc1ccccc1): 0.243
- photoluminescence quantum yield [1]: 0.96

SMILES: CC(=O)c1c(N[C@H](C(=O)O)C(C)C)c2ccc(N(C)C)cc2oc1=O
- photoluminescence quantum yield (in ClCCl): 0.004

SMILES: Cc1c(C)c(B(c2c(C)c(C)c(C#N)c(C)c2C)c2c(C)c(C)c(N3c4ccccc4Oc4ccccc43)c(C)c2C)c(C)c(C)c1C#N
- photoluminescence quantum yield (in c1ccc([Si](c2ccccc2)(c2ccc(-n3c4ccccc4c4ccccc43)cc2)c2ccc(-n3c4ccccc4c4ccccc43)cc2)cc1): 0.67

SMILES: CCCCCCCCCCCCOc1cc2cc(N(C)C)ccc2cc1C=O
- photoluminescence quantum yield (in ClCCl): 0.93

SMILES: CCCCc1cc2cccc[n+]2[b-]2ccc(-c3cc[b-]4c(c3)c(CCCC)cc3cccc[n+]43)cc21
- photoluminescence quantum yield (in C1CCCCC1): 0.05

SMILES: COc1c(/C=N/Nc2ccc(C#N)cc2)ccc2ccccc12
- photoluminescence quantum yield (in CO): 0.16

SMILES: CCOC(=O)c1ccc(NC(=O)COc2cc3c4c([nH]c3c(C)c2C)C(=O)CCC4)cc1
- photoluminescence quantum yield (in C1COCCO1): 0.031
- photoluminescence quantum yield (in CC#N): 0.131
- photoluminescence quantum yield (in CCO): 0.097
- photoluminescence quantum yield (in CS(C)=O): 0.123
- photoluminescence quantum yield (in O): 0.037
- photoluminescence quantum yield (in c1ccccc1): 0.075

SMILES: c1ccc(-c2cc3cc4cccc5c(-c6ccccc6)cc6cc7cccc2c7c3c6c45)cc1
- photoluminescence quantum yield (in ClCCl): 0.33

SMILES: O=c1c2ccccc2n2c3ccc(-c4ccccc4)cc3c(=O)c3cccc1c32
- photoluminescence quantum yield [1]: 0.73
- photoluminescence quantum yield (in c1cc(-n2c3ccccc3c3ccccc32)cc(-n2c3ccccc3c3ccccc32)c1): 0.73

SMILES: O=[N+]([O-])c1ccc(-c2cn3ccc[n+]3[n-]2)cc1
- photoluminescence quantum yield (in ClCCl): 0.16

SMILES: CCCn1c2cccc3oc4cccc5c4[c+](c32)c2c1cccc2n5CCC
- photoluminescence quantum yield (in CC#N): 0.44
- photoluminescence quantum yield (in CO): 0.41
- photoluminescence quantum yield (in ClCCl): 0.46
- photoluminescence quantum yield (in OCC(O)CO): 0.39

SMILES: C[Si](C)(C)[Si](C)(C)c1ccc2cc3ccccc3cc2c1
- photoluminescence quantum yield (in C1CCCCC1): 0.22
- photoluminescence quantum yield (in CC#N): 0.08

SMILES: COc1ccc2c(c1)CCc1c(-c3ccccc3)c3n(c1-2)[B-](F)(F)[N+]1=c2ccc4ccccc4c2=C(c2ccccc2)C1=N3
- photoluminescence quantum yield (in ClC(Cl)Cl): 0.11

SMILES: COC(=O)c1ccccc1C#Cc1ccccc1NC(C)=O
- photoluminescence quantum yield (in CC#N): 0.0002
- photoluminescence quantum yield (in ClCCl): 0.0003
